Results published in patent US8906855B2, “Methods and compositions for treating conditions related to lack of blood supply, shock and neuronal injuries” (Vivacelle Bio, Inc., priority 2007, dated 2014).

Assays:
[1] = Battion et al. 1968; cited from earlier work
[2] = published value; cited from earlier work
[3] = cited from earlier work
[4] = 1 atm; from The Engineering Toolbox; cited from earlier work
[5] = Nitric oxide uptake/content of the emulsion by mass spectrometry; details: equilibrated 60 minutes with 100 ppm nitric oxide in helium; ten samples
Experimental: Some samples (1 ml each) were left open to air in 2.0 ml tubes for 30 minutes prior to dissolved gas analysis. In other experiments the emulsion was placed into a 15 ml tube. The headspace was filled with the gas under study and the gas was allowed to enter the emulsion by equilibration over 60 minutes with the tube on its side to increase the gas emulsion interaction. 50 μL drawn from each of these fluids were injected into a Sievers purge vessel at 37° C. containing 36 ml of a mildly acidic solution consisting of 32 ml of 1M HCL and 4 ml of 0.5M ascorbic acid. […] Signals generated at m/z=32 upon injection of RL and lipid emulsion samples were integrated using Peakfit and compared to those obtained with distilled water.
In another set of experiments we measured the uptake of nitric oxide by a commercially available 20% soybean oil emulsion, Liposyn III 20%. This emulsion contains 20% soybean oil, 1.2% egg phospholipids and 2.5% glycerin in water. Using NaOH pH was adjusted to 8.3. […] 100 ppm nitric oxide in helium was used to purge the headspace for two minutes taking care not to bubble the fluid. For sixty minutes the sample was allowed to reach gas-liquid equilibrium with the tube placed on its side to maximize gas-emulsion contact. The ***nitric oxide content was measured in ten samples that were equilibrated with nitric oxide and ten samples that were equilibrated with room air.

Q: For `O=O` [Oxygen], which “solubility in lipid relative to water” value [1] is on record?
A: The value was 4.41 times.

Q: For hemoglobin, which oxygen release time [2] is on record?
A: The oxygen release time was 17.5 ms.

Q: Which “minimum alveolar concentration (MAC)” value ([3]; anesthetic) does the source give for `[Xe]` [Xenon] here?
A: The value was 71%.

Q: And the “more potent than N2O as an anesthetic” value ([3]; in vivo)?
A: The value was 50%.

Q: What does the source list for `O` [Water, water]?
A: Oxygen Content at 25° C. and Sea level Pressure [4]: 8.3 mg/L; nitric oxide content, mean and standard error [5]: 2.12×10^−3+/−0.17×10^−3
